From patent US20120321656A1, “OLIGOPEPTIDES AND THEIR USE FOR TREATING INFECTIOUS DISEASES” (priority 2011, published 2012)

Tested on: BALB/c female mouse
Assay: Immune response to individual peptide: mouse immunization, then indirect solid-phase immunoenzymatic assay (ELISA) of serum antibodies to peptide
Format: in vivo
Conditions: BALB/c mice, i.p. 100 μg peptide+Str-HRP with Freund's adjuvant; for Immunogenicity group: serum day 38, ELISA; for Overall ranking of antigenicity / Antigenicity compared to best ranking peptide (Average value calculated by removing outlier which exceeded 1 SD value) / Antigenicity compared to best ranking peptide (Median value): serum day 38, ELISA A450; for Antigenicity compared to best ranking peptide (Average value calculated by removing outlier which exceeded 1 SD value): average without outliers >1 SD

Row | Substance | Immunogenicity group | Overall ranking of antigenicity | Antigenicity compared to best ranking peptide (Average value calculated by removing outlier which exceeded 1 SD value) | Antigenicity compared to best ranking peptide (Median value)
1 | N-E-L-G-A-S-Q-A-I-D-L-L-K-G-V (NELGASQAIDLLKGV; Mycobacterium Tuberculosis Synthetic Peptide) [SEQ ID 9, oligopeptide from MT Exported Repetitive Protein (Erp)] | intermediate immunogenicity | 5 | 16.1 | 22.3
2 | A-G-R-R-C-L-D-A-G (AGRRCLDAG; Mycobacterium Tuberculosis Synthetic Peptide) [SEQ ID 11, oligopeptide from MT Cytotoxin/Hemolysin] | intermediate immunogenicity | 6 | 16.5 | 34.2
3 | V-Y-E-S-T-E-T-T-E-R-P-E-H-H-E-F-K-Q-A (VYESTETTERPEHHEFKQA; Mycobacterium Tuberculosis Synthetic Peptide) [SEQ ID 8, oligopeptide from MT Exported Repetitive Protein (Erp)] | relatively strong immunogenicity | 3 | 4.6 | 4.5
4 | S-R-Y-N-E-L-V-E-R-G-E-A [SEQ ID 2] | intermediate immunogenicity | 4 | 10.6 | 15.0
5 | T-D-S-E-R-A-W-V-S-R-G-A (TDSERAWVSRGA; Mycobacterium Tuberculosis Synthetic Peptide) [SEQ ID 10, oligopeptide from MT Cytotoxin/Hemolysin] | intermediate immunogenicity | 10 | 27.6 | 24.5
6 | S-D-P-A-W-K-R-N-D-P-M-V-Q-I-P-R-L (SDPAWKRNDPMVQIPRL; Mycobacterium Tuberculosis Synthetic Peptide) [SEQ ID 6, oligopeptide from MT Antigen 85 (Ag 85)] | relatively strong immunogenicity | 1 | 1.0 | 1.1
7 | S-M-G-R-D-I-K-V-Q-F-Q-G (SMGRDIKVQFQG; Mycobacterium Tuberculosis Synthetic Peptide) [SEQ ID 3, oligopeptide from MT Antigen 85 (Ag 85)] | intermediate immunogenicity | 11 | 26.5 | 35.8
8 | L-R-A-Q-D-D-Y-N-G-W-D-I (LRAQDDYNGWDI; Mycobacterium Tuberculosis Synthetic Peptide) [SEQ ID 4, oligopeptide from MT Antigen 85 (Ag 85)] | relatively strong immunogenicity | 2 | 1.4 | 1.0
9 | T-D-T-R-S-R-V-E-E-S-R-A-R-L [SEQ ID 1] | intermediate immunogenicity | 8 | 44.5 | 38.1
10 | T-Y-K-W-E-T-F-L-T-R-E-M-P-A (TYKWETFLTREMPA; Mycobacterium Tuberculosis Synthetic Peptide) [SEQ ID 5, oligopeptide from MT Antigen 85 (Ag 85)] | intermediate immunogenicity | 9 | 21.8 | 47.4
11 | G-D-N-I-P-A-K-F-L-E-G-T-L-R-T (GDNIPAKFLEGTLRT; Mycobacterium Tuberculosis Synthetic Peptide) [SEQ ID 7, oligopeptide from MT Antigen 85 (Ag 85)] | intermediate immunogenicity | 7 | 11.6 | 73.5
